Measurements taken from article PMC8878452, “A Tale of Toxin Promiscuity: The Versatile Pharmacological Effects of Hcr 1b-2 Sea Anemone Peptide on Voltage-Gated Ion Channels” (Marine Drugs, 2022).
“Also recorded” adds a separate entry of the source. Bridges are numbered along the chain shown (N, C = ends). Where no end group is shown, it is not given here.

Assays:
[1] = tested on: hNav1.7; assay: TEVC, Nav1.7 in Xenopus oocytes; assay type: cell-based, human
Source text: (§1) For the expression of Kv channels (rKv1.1, rKv1.2, rKv1.3, rKv1.4, rK1.5, rKv1.6, hKv2.1, hKv3.1, rKv4.2, hKv7.1, hKv7.2/7.3, hKv7.4, KQT1 (from the roundworm Caenorhabditis elegans), hKv10.1 (hEAG1), hKv11.1 (hERG1), and Shaker, from Drosophila melanogaster), Nav channels (rNav1.1, rNav1.2, rNav1.3, rNav1.4, hNav1.5, mNav1.6, hNav1.7, hNav1.8, and BgNav (from the cockroach Blattella germanica), as well as the hβ1 and rβ1 subunits, and Cav channels (rCav3.1, hCav3.2, and rCav3.3) in Xenopus oocytes, the linearized plasmids were transcribed using the T7 or SP6 mMESSAGEmMACHINE transcription kit (Ambion, Austin, TX, USA). Mature female animals were purchased from Nasco (Fort Atkinson, WI, USA) and were housed in the Aquatic Facility (KU Leuven) in compliance with the regulations of the European Union (EU) concerning the welfare of laboratory animals as declared in Directive 2010/63/EU. The use of X. laevis oocytes was approved by the Animal Ethics Committee of the KU Leuven, with the license number P186/2019.
(§2) Stage V–VI oocytes were collected from anesthetized female X. laevis frog as previously described, with the frogs anesthetized by placement in a 0.1% tricaine solution (amino benzoic acid ethyl ester; Merck, Kenilworth, NJ, USA). Oocyte microinjection was performed using a microinjector (Drummond Scientifc®, Broomall, PA, USA), with a programmed cRNA injection volume of 4–50 nL, depending on channel subtype. The oocytes were incubated in ND96 solution (96 mM NaCl; 2 mM KCl; 1.8 mM CaCl2; 2 mM MgCl2, and 5 mM HEPES, pH 7.4), supplemented with 50 mg/L of gentamicin sulfate.
(§3) Electrophysiological measurements were performed at room temperature (18–22 °C) using the two-electrode voltage-clamp (TEVC) technique. Data were obtained using a GeneClamp 500 amplifier (Axon Instruments®, Burlingame, CA, USA) and Clampex9 software (Axon Instruments®, USA) was responsible for data acquisition and storage. Glass micropipettes were produced using glass capillaries (borosilicate WPI 1B120-6) and drawn in a WPI (World Precision Instruments®, Sarasota, FL, USA) manual stretcher. The bath and perfusion solutions were either the previously described ND96 (Nav and Kv channels) or calcium-free ND96 supplemented with 10 mM BaCl2 (Cav channels).
(§4) Whole-cell currents of oocytes were recorded 1 to 3 days after RNA injection. The current and voltage electrodes were filled with 3 M KCl, and their resistance was adjusted from 1.0 to 2.5 MΩ. Currents were sampled at 20 kHz (Nav channels) and 10 kHz (Kv and Cav channels) and filtered using a four-pole Bessel low-pass Bessel filter at 1 kHz for sodium and […] for potassium and calcium, except for the hERG ion channel in which the currents were filtered at 1 kHz. Leak subtraction was performed using a P/4 protocol. Kv1.x currents were evoked by 500 ms depolarizations to 0 mV, followed by a 500 ms pulse to −50 mV from a holding potential of −90 mV. Kv2.1, Kv3.1, Kv4.2, Kv7.x, and KQT1 currents were elicited by 700 ms pulses to +20 mV from a holding potential of −90 mV. Current traces of the hERG1 channel were elicited by applying a +40 mV prepulse for 2 s, followed by a step of −120 mV for 2 s. Current traces of hEAG1 were elicited by a 2 s depolarization to 0 mV from a holding potential of −90 mV. Sodium current traces were evoked by a 100 ms depolarization to 0 mV. For Cav channels, current traces were elicited by 700 ms depolarizations to −20 mV from a holding potential of −90 mV. The current–voltage relationships were determined by 50 ms step depolarizations between −90 and +65 mV using 5 or 10 mV increments. All electrophysiological data were analyzed following the procedures described by Peigneur et al., 2012 [20].
(§5) All values were expressed as means ± SEM. Differences in ionic currents between the control and toxin conditions were compared by a one-way ANOVA, followed by Dunnett’s multiple comparisons test. Differences were considered statistically significant when […].

[2] = tested on: rNav1.2; assay: TEVC, Nav1.2 in Xenopus oocytes; assay type: cell-based, rat
Source text: as §1, §2, §3, §4, §5

[3] = tested on: hKv7.4; assay: TEVC, Kv7.4 in Xenopus oocytes; assay type: cell-based, human
Source text: as §1, §2, §3
(§6) Whole-cell currents of oocytes were recorded 1 to 3 days after RNA injection. The current and voltage electrodes were filled with 3 M KCl, and their resistance was adjusted from 1.0 to 2.5 MΩ. […] The current–voltage relationships were determined by 50 ms step depolarizations between −90 and +65 mV using 5 or 10 mV increments. All electrophysiological data were analyzed following the procedures described by Peigneur et al., 2012 [20].
(§7) All values were expressed as means ± SEM. […]

[4] = tested on: hKv11.1 (hERG1); assay: TEVC, hERG in Xenopus oocytes; assay type: cell-based, human
Source text: as §1, §2, §3
as §4, with “Current traces of hEAG1 were elicited by a 2 s depolarization to 0 mV from a holding potential of −90 mV. Sodium current traces were evoked by a 100 ms depolarization to 0 mV. For Cav channels, current traces were elicited by 700 ms depolarizations to −20 mV from a holding potential of −90 mV.” left out
as §7

[5] = tested on: rKv1.1; assay: TEVC, Kv1.1 in Xenopus oocytes; assay type: cell-based, rat
Source text: as §1, §2, §3, §6, §7

[6] = tested on: rCav3.3; assay: TEVC, Cav3.3 in Xenopus oocytes; assay type: cell-based, rat
Source text: as §1, §2, §3, §4, §5

[7] = tested on: rKv4.2; assay: TEVC, Kv4.2 in Xenopus oocytes; assay type: cell-based, rat; conditions: 1 µM, ND96 pH 7.4, 18–22 °C, n ≥ 3
Source text: as §1, with “P186/2019. […]” for “P186/2019.”
as §6, with “injection.” for “injection. The current and voltage electrodes were filled with 3 M KCl, and their resistance was adjusted from 1.0 to 2.5 MΩ.”
as §7

[8] = tested on: rNav1.3; assay: TEVC, Nav1.3 in Xenopus oocytes; assay type: cell-based, rat
Source text: as §1, §2, §3
as §4, with “Current traces of hEAG1 were elicited by a 2 s depolarization to 0 mV from a holding potential of −90 mV. Sodium current traces were evoked by a 100 ms depolarization to 0 mV. For Cav channels, current traces were elicited by 700 ms depolarizations to −20 mV from a holding potential of −90 mV.” left out
as §7

[9] = tested on: hKv2.1; assay: TEVC, Kv2.1 in Xenopus oocytes; assay type: cell-based, human
Source text: as §1, §2, §3
as §4, with “Current traces of hEAG1 were elicited by a 2 s depolarization to 0 mV from a holding potential of −90 mV. Sodium current traces were evoked by a 100 ms depolarization to 0 mV. For Cav channels, current traces were elicited by 700 ms depolarizations to −20 mV from a holding potential of −90 mV.” left out
as §7

[10] = tested on: tested animals; conditions: cited from earlier work
Experimental: Recently, the Hcr 1b-2 sequence was determined, together with two other peptides, named Hcr1b-3 and Hcr1b-4, which share 97.6% and 78.0% of sequence identity, respectively (Figure 1).

[11] = 1 µM, 100 ms depolarization to 0 mV, mean ± SEM, n ≥ 3
[12] = 1 µM, TEVC, ND96 pH 7.4, 18–22 °C, n ≥ 3
[13] = 1 µM vs control (ND96 Ca2+ free)

Sequence: GTPCKCHGYIGVYWFMLAGCPNGYGYNLSCPYFLGICCVKK (disulfide 4-37, 6-30, 20-38 (inferred)) [Hcr 1b-2]
- effect on activation or inactivation, Nav1.7 ([1]; 1 µM): no significant effect
- Shift in Vhalf activation, Nav1.7 ([1]; 1 µM vs control (ND96)): −2.8 mV
- Shift in Vhalf inactivation, Nav1.7 ([1]; 1 µM vs control (ND96)): −0.5 mV
- reduction of peak amplitude (INa) / inhibition, Nav1.7 [1, 11]: 38.7 ± 1.8%
- Vhalf activation, Nav1.7 ([1]; 1 µM, control (ND96) −26.9 ± 0.1, mean ± SEM, n ≥ 3): −29.7 ± 0.1 mV
- Vhalf inactivation, Nav1.7 ([1]; 1 µM, control (ND96) −38.1 ± 0.3, mean ± SEM, n ≥ 3): −38.6 ± 0.4 mV
- effect on activation or inactivation, Nav1.2 ([2]; 1 µM): no significant effect
- Shift in Vhalf activation, Nav1.2 ([2]; 1 µM vs control (ND96)): 3.7 mV
- Shift in Vhalf inactivation, Nav1.2 ([2]; 1 µM vs control (ND96)): −1.1 mV
- reduction of peak amplitude (INa), Nav1.2 [2, 11]: 52.8 ± 7.9%
- Vhalf activation, Nav1.2 ([2]; 1 µM, control (ND96) −19.2 ± 0.1, mean ± SEM, n ≥ 3): −15.5 ± 0.2 mV
- Vhalf inactivation, Nav1.2 ([2]; 1 µM, control (ND96) −33.6 ± 0.4, mean ± SEM, n ≥ 3): −34.7 ± 0.6 mV
- gating-modifier effect (voltage-current relationship), Kv7.4 ([3]; 1 µM): stronger shift
- Shift in Vhalf activation, Kv7.4 ([3]; 1 µM vs control (ND96)): 7.1 mV
- effect on potassium current, Kv7.4 [3, 12]: inhibition; also recorded: inhibits
- Vhalf activation, Kv7.4 ([3]; 1 µM, control (ND96) 3.8 ± 0.3, mean ± SEM): 10.9 ± 0.3 mV
- gating-modifier effect (voltage-current relationship), hERG ([4]; 1 µM): stronger shift; also recorded: strong shift towards more positive potentials; also recorded: significantly shift the current-voltage relationship of hERG
- effect on potassium current, hERG ([4]; 1 µM, TEVC, ND96 pH 7.4, 18–22 °C, n = 3): inhibition; also recorded: strong hERG modulator
- Vhalf activation, hERG (peak) ([4]; 1 µM, peak current, control (ND96) −13.7 ± 0.5, mean ± SEM, n = 3): 12.6 ± 0.4 mV
- Vhalf activation, hERG (tail) ([4]; 1 µM, tail current, control (ND96) −22.9 ± 0.6, mean ± SEM, n = 3): 0.6 ± 0.7 mV
- inhibition at 1 µM ([4]; human, Xenopus laevis oocytes expressing hKv11.1 (hERG1), pH 7.4, +40 mV prepulse 2 s, then −120 mV 2 s, mean ± SEM, n = 3, read-out: activity (inhibition of current), hERG): 51.7 ± 7.6%
- gating-modifier effect (voltage-current relationship), Kv1.1 ([5]; 1 µM): non-significant gating-modifier effect
- Shift in Vhalf activation, Kv1.1 ([5]; 1 µM vs control (ND96)): −4.8 mV
- effect on potassium current, Kv1.1 [5, 12]: activation
- Vhalf activation, Kv1.1 ([5]; 1 µM, control (ND96) −13.8 ± 0.3, mean ± SEM): −18.6 ± 0.3 mV
- Shift in Vhalf activation, Cav3.3 [6, 13]: −2.2 mV
- Shift in Vhalf inactivation, Cav3.3 [6, 13]: −2.1 mV
- higher activity on Cav3.3 than on Cav3.1 ([6]; 1 µM, Cav3.3 vs Cav3.1): 9 fold
- higher activity on Cav3.3 than on Cav3.2 ([6]; 1 µM, Cav3.3 vs Cav3.2): 1.6 fold
- inhibition, Cav3.3 ([6]; 1 µM, calcium-free ND96 + 10 mM BaCl2, 700 ms depolarization to −20 mV from −90 mV, mean ± SEM, n ≥ 3): 58.9 ± 9.4%
- Vhalf activation, Cav3.3 ([6]; 1 µM, control (ND96 Ca2+ free) −41.7 ± 0.4, mean ± SEM, n ≥ 3): −43.9 ± 0.5 mV
- Vhalf inactivation, Cav3.3 ([6]; 1 µM, control (ND96 Ca2+ free) −47.6 ± 0.2, mean ± SEM, n ≥ 3): −49.7 ± 0.3 mV
- effect on potassium current, Kv4.2 [7]: inhibition
- Shift in Vhalf activation, Nav1.3 ([8]; 1 µM vs control (ND96)): 5.3 mV
- Shift in Vhalf inactivation, Nav1.3 ([8]; 1 µM vs control (ND96)): −3.4 mV
- inhibition of peak amplitude (INa), Nav1.3 [8, 11]: 11.2 ± 1.8%
- Vhalf activation, Nav1.3 ([8]; 1 µM, control (ND96) −21.2 ± 0.1, mean ± SEM, n ≥ 3): −15.9 ± 0.1 mV
- Vhalf inactivation, Nav1.3 ([8]; 1 µM, control (ND96) −29.9 ± 0.1, mean ± SEM, n ≥ 3): −33.3 ± 0.1 mV
- gating-modifier effect (voltage-current relationship), Kv2.1 ([9]; 1 µM): non-significant gating-modifier effect
- Shift in Vhalf activation, Kv2.1 ([9]; 1 µM vs control (ND96)): 2.6 mV
- activity (inhibition of current), Kv2.1 ([9]; 1 µM, 700 ms pulse to +20 mV from −90 mV, mean ± SEM, n ≥ 3): 32.6 ± 3.4%
- effect on potassium current, Kv2.1 [9, 12]: inhibition
- Vhalf activation, Kv2.1 ([9]; 1 µM, control (ND96) 5.3 ± 0.3, mean ± SEM): 8.0 ± 0.2 mV
- signs of neurotoxicity or changes in behavior [10]: None of these three peptides showed signs of neurotoxicity or changes in the behavior
